Reference: publication PMC12700101 (2025)

Tests used:
Experiment in all cases: fluorescence titration (intramolecular strand displacement)
Details in all cases: 6 mM MgCl2; apparent; 10 mM Tris-HCl pH 7.5, 25 °C
[1] = tested on: 25-7 ATP ISD FAM–BHQ-1 (DNA, aptamer) CACCTGGGGGAGTATTGCGGAGGAAGGTTTTTCCAGGTG
[2] = tested on: 25-7 ATP ISD FAM–Dab (DNA, aptamer, dabcyl-5-methyl-dC at 40 (3' end)) CACCTGGGGGAGTATTGCGGAGGAAGGTTTTTCCAGGTGC
[3] = tested on: 25-7 ATP ISD Cy3–BHQ-1 (DNA, aptamer) CACCTGGGGGAGTATTGCGGAGGAAGGTTTTTCCAGGTG
[4] = tested on: 25-7 ATP ISD Cy3–Dab (DNA, aptamer, dabcyl-5-methyl-dC at 40 (3' end)) CACCTGGGGGAGTATTGCGGAGGAAGGTTTTTCCAGGTGC

Nc1ncnc2c1ncn2[C@@H]1O[C@H](COP(=O)(O)OP(=O)(O)OP(=O)(O)O)[C@@H](O)[C@H]1O
Kd [1]: 1800 ± 1700 µM | Kd [2]: 1300 ± 600 µM | Kd [3]: 460 ± 65 µM | Kd [4]: 390 ± 83 µM
